Results on one compound are retold here after patent US7384919B2, “Increased solubility flavanolignan preparations” (IVAX Pharmaceuticals s.r.o., priority 2001, dated 2008).

The data set can be described thus: Dissolution test of samples filled in hard gelatin capsules (Ph. Eur. Type 2 device). In kind it is physicochemical. To be noted: Example 2 samples (pure silybin/silydianin), tested as described for Example 1 (capsule, pH 7.5, 100 rpm). On the procedure:
For this purpose 100 mg of each Samples were filled in hard gelatin capsules (number 00). Individual capsules underwent the test on the device as per the Ph. Eur. Type 2 in 2 litres of the dissolution medium pH 7.5 and under 100 revolutions per minute.

SMILES strings stand for the structures.

In the case of `COc1cc(C2Oc3cc([C@H]4Oc5cc(O)cc(O)c5C(=O)[C@@H]4O)ccc3OC2CO)ccc1O` (some centres unmarked) [Silybin, silybin], the “Dissolution Values, 30 minutes” value (after 30 minutes) worked out at 4.6%. The “Dissolution Values, 60 minutes” value (after 60 minutes) turned out to be 4.5%.
